Test [1] concerns cattle. Nature of the test: In vivo rumen ORP in cattle with ORP measurement bolus. How it is done:
Experimental: An in vivo study was conducted to investigate the effect of feed additives of the invention on rumen ORP in cattle. The study involved administering an ORP measurement bolus to each cow to allow for an ORP reading to be recorded every 10 minutes, dividing the cattle into three groups: a control group (receiving feed without any feed additive of the invention), low dose (receiving 100 g CaO2 per day along with feed—with the additive being delivered at a single morning feeding) and a high dose group (receiving 200 g CaO2 per day along with feed—with the additive being delivered at a single morning feeding). The rumen was opened after approximately 450 hours.
The results of this study are given in FIG. 20 which charts the ORP level in the rumen (mV) over time measured at 10-minute intervals for the control group, the low-dose group, and the high-dose group respectively.
An average baseline ORP reading measured for the animals from the control group is about −440 mV. This average baseline ORP reading of about −440 mV may be useful to aid comparison between control ORP and increases in ORP due to the animals consuming the additive. After approximately 450 hours the rumen was opened and the ORP results after this time point should be disregarded.

In test [2] the test system is adult ewes. How it is done:
A methane emission study was carried out to determine the impact of feeding different doses of the feed additive would have on enteric fermentation. […] Any refused concentrate/additive was recorded. Sheep then had ad libitum access to grass silage and water throughout the day, with the amount of silage eaten recorded for each animal.
Body weights of all animals were recorded at the start of the experiment (‘week 1’) and after 49 days (‘week 7’).
Methane emissions were recorded through use of Portable Accumulation Chambers (PAC). Briefly: these are sealed chambers in which individual animals remain for a 1 hour time period. During this time period methane, oxygen and carbon dioxide measurements are taken at 0 minutes, 25 minutes and 50 minutes. […] Animals were placed in the PAC on week 1 and […] as defined above. 12 adult ewes, at least 2 years old, were divided into 2 groupings of 6 sheep. One group received a 2.355 g dose of Urea-Hydrogen Peroxide (termed Group 1) per day and the other received a 4.71 g dose of Urea-Hydrogen Peroxide (termed Group 2) per day.
Control Group: Sheep were fed 0.5 kg of feed concentrate comprising animal feed, on a daily basis over a 7 week period.
Treatment Group 1 (UHP 0.5X): Sheep were fed 0.5 kg of feed concentrate comprising the same animal feed as the control group and 0.15% (by weight) of urea hydrogen peroxide, on a daily basis over a 7 week period.
Treatment Group 2 (UHP 1X): Sheep were fed 0.5 kg of feed concentrate comprising the same animal feed as the control group and 0.3% (by weight) of urea hydrogen peroxide, on a daily basis over a 7 week period.

The conditions of test [3]: for Average Weight Gain: day 1 to day 49; for Average Daily DMI: group average; for Gain:Feed Ratio: group basis; for Average Finishing Weight / Average Starting Weight: group of 20 sheep. How it is done: Experimental: A study was conducted to determine what impact consumption of the feed additives would have on animal performance. It is estimated that between 2-12% of the energy content of animal feed is lost through enteric fermentation. This study examined whether though potential reductions in enteric fermentation additional energy would be diverted to the animal, with this being seen via an improved feed:gain metric, that is the ability of the animal to improve the rate of increase in its body weight per unit of feed eaten. 60 adult ewes (average starting body weight of approximately 80 kg) were divided into 3 equal groups of 20 sheep per group. Animals were fed as described in the Animal Study—Methane Emissions above. Animals were grouped into a control group (no feed additive given); treatment group 1 (2.355 g Urea-Hydrogen Peroxide given daily); treatment group 2 (4.71 g Urea-Hydrogen Peroxide given daily).
Animals were weighed at the start of the experiment (day 1) and at the end of the study (day 49). All feed (DMI) consumed was weighed and recorded throughout the study.
A feed:gain ratio was calculated as follows: […]
The ratio of weight gain to DMI was then calculated to determine the feed efficiency of each animal.

Where [4] appears, read: Treatment Group 1, 2.355 g UHP per day.
Setting [5] is: Treatment Group 1, 2.355 g UHP per day, Week 1.
[6] abbreviates: Treatment Group 1, 2.355 g UHP per day, Week 7.
Setting [7] is: Treatment Group 2, 4.71 g UHP per day.
Where [8] appears, read: Treatment Group 2, 4.71 g UHP per day, Week 1.
Setting [9] is: Treatment Group 2, 4.71 g UHP per day, Week 7.

Structures are written as SMILES. Read-outs that look alike come from different tables or passages of the source.

As for `[Ca+2].[O-][O-]` [CaO2, calcium peroxide], the “increase of ORP in the rumen after each morning feed” value in test [1] (100 g or 200 g CaO2 per day with feed, sustained period of at least one hour) is recorded as “at least +100 mV”. For the same compound, in test [1] (100 g or 200 g CaO2 per day, temporary reductions below baseline between administrations), the “initial period (correction phase) of the ORP profile” value is 300 to 350 h.

`NC(N)=O.OO` [urea hydrogen peroxide]: in test [2] (setting [4]), the “CH4/BW Difference week 7 versus week 1” value is 11.24% and the “CH4/day Difference week 7 versus week 1” value stood at 5.828%. Besides, in test [2] (setting [5]), the “CH4/BW (group mean)” value is given as 0.3705 litres of methane per kg of animal body weight and the “CH4/day (group mean)” value turned out to be 29.32. In addition, in test [2] (setting [6]), the “CH4/BW (group mean)” value was 0.3288 litres of methane per kg of animal body weight and the “CH4/day (group mean)” value was determined as 27.61. Also, in test [2] (setting [7]), the “CH4/BW Difference week 7 versus week 1” value turned out to be 22.61% and the “CH4/day Difference week 7 versus week 1” value came out at 18.04%. In addition, in test [2] (setting [8]), the “CH4/BW (group mean)” value was 0.3753 litres of methane per kg of animal body weight and the “CH4/day (group mean)” value stood at 29.82. In addition, in test [2] (setting [9]), the “CH4/BW (group mean)” value is 0.2905 litres of methane per kg of animal body weight and the “CH4/day (group mean)” value was determined as 24.44. For the same compound, the “methane production by week 7” value in test [2] (treatment groups, feed concentrate comprising urea hydrogen peroxide) is recorded as “significant decrease in methane production”. In test [3] (Treatment 1, 2.355 g UHP daily), the “Average Weight Gain” value was found to be 5.65 kg, the “Average Daily DMI” value is 1.6345 kg, the “Gain:Feed Ratio” value is reported as 0.0864 and the “Average Finishing Weight” value turned out to be 82.55 kg. In addition, the “Average Starting Weight” value in test [3] (Treatment 1, 2.355 g UHP daily) stood at 76.9 kg. Besides, in test [3] (Treatment 2, 4.71 g UHP daily), the “Average Weight Gain” value was determined as 6.325 kg, the “Average Daily DMI” value is 1.516 kg, the “Gain:Feed Ratio” value was determined as 0.1043 and the “Average Finishing Weight” value stood at 81.275 kg. Besides, the “Average Starting Weight” value in test [3] (Treatment 2, 4.71 g UHP daily) worked out at 74.95 kg. In addition, the “weight gain versus control group” value in test [3] (treatment groups) is “gained more weight on average than the control group”.

Source of the values: patent US20240374635A1, “COMPOSITIONS AND METHODS” (Glasport Bio Limited, priority 2021, published 2024).
